Columns and labels:
5-lipoxygenase = target: T1, 5-lipoxygenase (Rattus norvegicus, UniProt P12527); test: Protocol for detecting inhibitors of the lipoxygenase pathway (5-HETE formation in rat neutrophils); assay type: cell-based; settings: rat PMN, [14C]-arachidonic acid + A23187, 5-HETE; read-out: LOX, (RAT PMN) I50
T1 construct: A suspension of rat neutrophils in buffer; endogenous in cells; host or cells: rat neutrophils (PMN)
T1 sequence (P12527 1-673): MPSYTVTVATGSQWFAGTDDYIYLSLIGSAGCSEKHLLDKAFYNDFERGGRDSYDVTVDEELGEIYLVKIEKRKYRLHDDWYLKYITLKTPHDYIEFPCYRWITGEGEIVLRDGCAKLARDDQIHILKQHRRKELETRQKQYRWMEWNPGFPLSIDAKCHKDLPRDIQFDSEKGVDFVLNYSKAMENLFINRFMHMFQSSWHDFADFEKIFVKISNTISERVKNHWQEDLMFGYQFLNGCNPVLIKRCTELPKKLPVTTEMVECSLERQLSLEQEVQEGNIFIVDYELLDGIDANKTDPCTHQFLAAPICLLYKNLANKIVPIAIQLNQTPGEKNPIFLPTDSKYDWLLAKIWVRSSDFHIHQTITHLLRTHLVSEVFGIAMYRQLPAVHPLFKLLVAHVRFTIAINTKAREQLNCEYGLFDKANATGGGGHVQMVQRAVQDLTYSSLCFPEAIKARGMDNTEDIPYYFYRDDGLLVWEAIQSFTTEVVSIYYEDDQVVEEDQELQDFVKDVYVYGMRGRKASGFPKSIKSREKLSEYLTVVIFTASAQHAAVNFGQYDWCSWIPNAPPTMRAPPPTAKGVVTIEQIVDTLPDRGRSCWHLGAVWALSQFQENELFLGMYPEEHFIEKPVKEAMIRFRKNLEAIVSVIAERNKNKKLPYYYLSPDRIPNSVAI
Experimental: Protocol for Detecting Inhibitors of the Lipoxygenase Pathway
A suspension of rat neutrophils in buffer is incubated for 3 minutes at 30° C. with [^14 C]-arachidonic acid (AA) and Calcium Ionophore A23187. Citric acid (2M) is used to quench the reaction. Following the addition of a trace amount of (^3 H)-5-HETE together with an excess of unlabeled 5-HETE to each tube, the mixture is extracted with chloroform/methanol. The organic layer is washed with dilute acid and an aliquot is transferred to glass tubes and dried. The residue is dissolved in a small volume of chloroform and an aliquot is spotted on silica get TLC sheets, which are developed with an ethyl acetate/isooctane/water acetic acid solvent system. The 5-HETE spots are visualized with iodine, cut out and placed in scintillation vials for counting. After adjusting for the extraction efficiency, the amount (pmole) of [^14 C]-5-HETE in each of the tubes is quantitated. The net pmoles of 5-HETE are obtained by subtracting the pmoles of 5-HETE in the tubes containing […]. The ability of the test compounds to modulate the activity of this enzyme is determined by a decrease or increase in the net amount of 5-HETE produced.

cyclooxygenase = test: Production of TXB2 and PGF2 α in rat peritoneal leukocyte homogenate (cyclooxygenase); assay type: biochemical; settings: read-out: Cyclox, I50
Excerpt: Another assay has been developed to test the ability of the invented compounds on the activity of cyclooxygenase, which is one of the enzymes metabolizing arachidonic acids. By-products of arachidonic acid metabolism include thromboxanes, a type of which is designated as TXB2, and protoglandins, a class of which is known as PGF2 α. As indicated, supra, these by-products promote inflammatory response to a host of offending stimuli. The following protocol describes a procedure for testing the inhibitory effect on the production of TXB2 and PGF2 α.
Protocol for Detecting the Production of TXB2 and PGF2 α.
A suspension of glycogen elicited rat peritoneal leukocyte-homogenate in buffer is incubated with (^14 C)-arachidonic acid (AA), epinephrine and glutathione for 30 minutes at 37°. The reaction is quenched with 2M citric acid, and a trace amount of (^3 H)-TXB2 and an excess of unlabeled TXB2 and PGF2 α are added to each tube. […] Strips containing the spots are cut out, placed in scintillation vials and the radioactive content is quantitated in a liquid scintillation spectrometer.
After adjusting for the extraction efficiency, the amount (pmole) of (^14 C)-TXB2 and PGF2 α in each of the tubes is calculated. […] The ability of the test compounds to modulate the activity of this enzyme is determined by a decrease or increase in the net amount of TXB2 and PGF2 α produced.

Phospholipase A2 (PLA2) = target: T2, Phospholipase A2 (PLA2) (Rattus norvegicus, UniProt P14423); test: In vitro assay for inhibitors of Phospholipase A2 (PLA2) from rat platelets; assay type: biochemical; settings: pH 7.2, 37° C.; read-out: PLA2, I50
T2 construct: obtained by aggregation of purified rat platelets; from tissue; host or cells: rat platelets (enzyme obtained by aggregation)
T2 sequence (P14423 22-146): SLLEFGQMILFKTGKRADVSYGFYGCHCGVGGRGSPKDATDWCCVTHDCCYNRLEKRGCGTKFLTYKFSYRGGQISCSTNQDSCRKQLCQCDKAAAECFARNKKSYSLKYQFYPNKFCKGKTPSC
Excerpt: B. In Vitro Assay For Inhibitors of Phospholipase A2 Assayed at pH 7.0 (PLA2)
The PLA2 employed in this screen is obtained by aggregation of purified rat platelets. In the enzyme assay phosphatidylcholine having ^14 C-labeled palmitate residues at R1 and R2 is employed as substrate. PLA2 acts by cleaving the R2 fatty acid ester bond yielding free fatty acid and lysophosphatidyl choline as follows: [drawing 19]
Following completion of the reaction, the assay medium is acidified and extracted with hexane, which takes up unreacted substrate and free fatty acid product. The hexane extract is passed over a short silica column which retains 99% of the phosphatidyl choline. The ^14 C-labeled palmitic acid is not retained (90% recovery in eluate) and is collected directly in scintillation counting vials. The released palmitic acid is conveniently quantitated by liquid scintillation spectrometry.
The compounds were tested at 100 uM in a buffer containing 0.3 mM unlabeled phosphatidylcholine (PC), 20-30,000 cpm of ^14 C(CPC), […], 1 mM CaCl2 and 50 mM tris-HCl adjusted to pH 7.2 with 1N NaOH. […] The temperature of the buffer was maintained at a temperature of 37° C. The reaction was initiated by addition of the enzyme and it was terminated 30 minutes later by the addition of […] of 1N HCl.
Following acidification, the samples were extracted with 2 ml of 2-propanol and 2 ml of hexane, vortexed and allowed to stand until the phases separated. Free fatty acids (FFA) and some unreacted substrate were taken up in the isopropanol-saturated hexane. The hexane phase of the extraction mixture was transferred to a short silica gel column which retained […] but not the FFA. The column effluent was collected directly in scintillation vials. The columns were washed once with an additional 2 ml of hexane. The radio labeled FFA were quantitated by liquid scintillation spectrometry.

Structure (SMILES): CCC(=CC=Cc1cn(Cc2ccccc2)c2ccccc12)C(=O)O [Example 9, 5-(1-Benzylindol-3-yl)-2-Ethyl-2,4-Pentadienoic Acid]
- IC50 (5-lipoxygenase): 2.3 µM
- IC50 (cyclooxygenase): 15 µM
- IC50 (Phospholipase A2 (PLA2)): 47 µM

Source: patent US4758586A, “Indolyl compounds and hyposensitivity use thereof” (USV Pharmaceutical Corp., priority 1986, dated 1988)
